Test system: gamma secretase cleavage of NotchΔE (constitutively active rat Notch1 construct ZEDN1)
Experiment: Notch signaling assay for selective inhibitors of gamma secretase (4xwtCBF1 Luciferase reporter gene co-transfected with NotchΔE ZEDN1)
Type: cell-based
Conditions: 'the above assay' (reporter gene based Notch signaling assay), ranges stated as 'from about'
Source text: “A presenilin-1-dependent gamma-secretase-like protease mediates release of Notch intracellular domain.” Nature 398(6727): 518-22; Mumm, J. S., E. H. Schroeter, M. T. Saxena, A. Griesemer, X. Tian, D. J. Pan, W. J. Ray and R. Kopan (2000). “A ligand-induced extracellular cleavage regulates gamma-secretase-like proteolytic activation of Notch1.” Mol Cell 5(2): 197-206; Zhang, Z., P. Nadeau, W. Song, D. Donoviel, M. Yuan, A. Bernstein and B. A. Yankner (2000). “Presenilins are required for gamma-secretase cleavage of beta-APP and transmembrane cleavage of Notch-1.” Nat Cell Biol 2(7): 463-5). Cleavage of APP by gamma secretase leads to β-amyloid synthesis. Cleavage of Notch1 by gamma secretase results in release of the Notch intracellular domain (NICD), which translocates to the nucleus and activates gene expression (Jarriault, S., C. Brou, F. Logeat, E. H. Schroeter, R. Kopan and A. Israel (1995). “Signalling downstream of activated mammalian Notch.” Nature 377(6547): 355-8; Kopan, R., E. H. Schroeter, H. Weintraub and J. S. Nye (1996). “Signal transduction by activated Notch: importance of proteolytic processing and its regulation by the extracellular domain.” Proc Natl Acad Sci USA 93(4): 1683-8; Schroeter, E. H., J. A. Kisslinger and R. Kopan (1998). “Notch-1 signalling requires ligand-induced proteolytic release of intracellular domain.” Nature 393(6683): 382-6). In particular, Notch signaling activates transcription of the mammalian homolog of the Drosophila transcription factor hairy-enhancer of split (Hes). Transcriptional activation of Hes1 is mediated by de-repression of CBF1/RBPJk upon binding by NICD in the nucleus. These facts have been exploited to develop a reporter gene assay for Notch Signaling Hsieh, J. J., T. Henkel, P. Salmon, E. Robey, M. G. Peterson and S. D. Hayward (1996). “Truncated mammalian Notch1 activates CBF1/RBPJk-repressed genes by a mechanism resembling that of Epstein-Barr virus EBNA2.” Mol Cell Biol 16(3): 952-9; Lu, F. M. and S. E. Lux (1996). “Constitutively active human Notch1 binds to the transcription factor CBF1 and stimulates transcription through a promoter containing a CBF1-responsive element.” Proc Natl Acad Sci USA 93(11): 5663-7).
Due to the importance of Notch signaling in cell fate determination, and tissue differentiation during both development and in the adult, inhibition of Notch signaling by gamma secretase inhibitors is postulated to be a limiting factor in their therapeutic utility. […] “Notch signaling inhibits muscle cell differentiation through a CBF1-independent pathway.” Development 122(12): 3765-73 in combination with the CBF1 repressible Luciferase reporter gene 4xwtCBF1Luc (Hsieh, J. J., et al., (1996). Mol Cell Biol 16(3): 952-9).
When 4xwtCBF1 Luciferase is co-transfected with NotchΔE (ZEDN1), γ-secretase cleavage of NotchΔE releases the Notch intracellular domain (NICD), which translocates to the nucleus and de-represses CBF1mediated transcriptional repression, leading to transcription of the Luciferase reporter gene. Luciferase activity is easily assayed in cell extracts using commercially available kits. The activity of the reporter gene is directly correlated with gamma secretase cleavage of NotchΔE, and as such, a reduction in Luciferase activity provides a convenient measure of inhibition of gamma secretase cleavage of NotchΔE.

Compared with `COc1ccc(CN(C2CCCCNC2=O)S(=O)(=O)c2ccc(C(C)(C)C)cc2)cc1OC` (stereo not drawn) [Compound 14, 4-tert-Butyl-N-(3,4-dimethoxy-benzyl)-N-(2-oxo-azepan-3-yl)-benzenesulfonamide], `O=C1NCCCCC1N(Cc1ccc2c(c1)OCO2)S(=O)(=O)c1ccc(Cl)cc1` (stereo not drawn) [Compound 249, N-Benzo[1,3]dioxol-5-ylmethyl-4-chloro-N-(2-oxo-azepan-3-yl)-benzenesulfonamide] is lower in IC50: > 1000 nM for the first, 0.1 to 25 nM for the second. The second is the more potent here.

First: C=C(CC)CN(C1CCCCNC1=O)S(=O)(=O)c1ccc(Cl)cc1 (stereo not drawn) [Compound 66, 4-Chloro-N-(2-ethyl-allyl)-N-(2-oxo-azepan-3-yl)-benzenesulfonamide]
Second: NC(=O)CN(C1CCCCNC1=O)S(=O)(=O)c1ccc(Cl)cc1 (stereo not drawn) [Compound 338, 2-[(4-Chloro-benzenesulfonyl)-(2-oxo-azepan-3-yl)-amino]-acetamide]
The IC50 of the first is lower: 100 to 1000 nM for the first, > 1000 nM for the second.

First: O=C1NCCCC[C@H]1N(Cc1ccc2c(c1)OCCO2)S(=O)(=O)c1ccc(Cl)cc1 [Compound 77, 4-chloro-N-(2,3-dihydro-1,4-benzodioxin-6-ylmethyl)-N-[(3R)-2-oxoazepan-3-yl]benzenesulfonamide]
Second: O=C1NCCCC[C@H]1N(Cc1ccc2ccccc2c1)S(=O)(=O)c1ccc(Cl)cc1 [Compound 227, 4-chloro-N-(2-naphthylmethyl)-N-[(3R)-2-oxoazepan-3-yl]benzenesulfonamide]
The IC50 of the first is lower: 0.1 to 25 nM for the first, 25 to 100 nM for the second.

First: O=C1NCCCC[C@H]1N(CCCOCc1ccccc1)S(=O)(=O)c1ccc(Cl)cc1 [Compound 89, N-[3-(benzyloxy)propyl]-4-chloro-N-[(3R)-2-oxoazepan-3-yl]benzenesulfonamide]
Second: O=C1c2ccccc2C(=O)C1CCCCN([C@@H]1CCCCNC1=O)S(=O)(=O)c1ccc(Cl)cc1 [Compound 108, 4-chloro-N-[4-(1,3-dioxo-2,3-dihydro-1H-inden-2-yl)butyl]-N-[(3R)-2-oxoazepan-3-yl]benzenesulfonamide]
The IC50 of the first is higher: > 1000 nM for the first, 100 to 1000 nM for the second. The second is the more potent here.

First: O=C1NCC[C@H]1N(Cc1ccc(F)cc1F)S(=O)(=O)c1ccc(Cl)cc1 [Compound 148, 4-chloro-N-(2,4-difluorobenzyl)-N-[(3R)-2-oxopyrrolidin-3-yl]benzenesulfonamide]
Second: O=C1NCCCCC1N(Cc1ccc(Br)s1)S(=O)(=O)c1ccc(Cl)cc1 (stereo not drawn) [Compound 160, N-(5-Bromo-thiophen-2-ylmethyl)-4-chloro-N-(2-oxo-azepan-3-yl)-benzenesulfonamide]
The IC50 of the first is higher: > 1000 nM for the first, 100 to 1000 nM for the second.

First: O=C1NCCCCC1N(Cc1cccn1S(=O)(=O)c1ccccc1)S(=O)(=O)c1ccc(Cl)cc1 (stereo not drawn) [Compound 206, N-(1-Benzenesulfonyl-1H-pyrrol-2-ylmethyl)-4-chloro-N-(2-oxo-azepan-3-yl)-benzenesulfonamide]
Second: C[C@@H](NC(=O)c1ccc(CN([C@@H]2CCCCNC2=O)S(=O)(=O)c2ccc(Cl)cc2)cc1)c1ccccc1 [Compound 537, 4-({[(4-chlorophenyl)sulfonyl][(3R)-2-oxoazepan-3-yl]amino}methyl)-N-[(1R)-1-phenylethyl]benzamide]
The IC50 of the first is higher: > 1000 nM for the first, 0.1 to 25 nM for the second. The second is the more potent here.

`CSc1ccc(CN(C2CCCCNC2=O)S(=O)(=O)c2ccc(Cl)cc2)cc1` (stereo not drawn) [Compound 269, 4-Chloro-N-(4-methylsulfanyl-benzyl)-N-(2-oxo-azepan-3-yl)-benzenesulfonamide] and `COC(=O)c1ccc(CN([C@@H]2CCCCNC2=O)S(=O)(=O)c2ccc(Cl)cc2)cc1` [Compound 275, methyl 4-({[(4-chlorophenyl)sulfonyl][(3R)-2-oxoazepan-3-yl]amino}methyl)benzoate] fall in the same range of IC50: 0.1 to 25 nM for the first, 0.1 to 25 nM for the second.

Compared with `CC(C)CNC(=O)c1ccc(CN([C@@H]2CCCCNC2=O)S(=O)(=O)c2ccc(Cl)cc2)cc1` [Compound 486, 4-({[(4-chlorophenyl)sulfonyl][(3R)-2-oxoazepan-3-yl]amino}methyl)-N-isobutylbenzamide], `O=C(NCc1cccnc1)c1ccc(CN([C@@H]2CCCCNC2=O)S(=O)(=O)c2ccc(Cl)cc2)cc1` [Compound 593, 4-({[(4-chlorophenyl)sulfonyl][(3R)-2-oxoazepan-3-yl]amino}methyl)-N-(pyridin-3-ylmethyl)benzamide] is lower in IC50: 25 to 100 nM for the first, 0.1 to 25 nM for the second. The second is the more potent here.

First: O=C(CCCc1ccccc1)Nc1ccc(CN([C@@H]2CCCCNC2=O)S(=O)(=O)c2ccc(Cl)cc2)cc1F [Compound 505, N-[4-({[(4-chlorophenyl)sulfonyl][(3R)-2-oxoazepan-3-yl]amino}methyl)-2-fluorophenyl]-4-phenylbutanamide]
Second: CC[C@@H](NC(=O)c1ccc(CN([C@@H]2CCCCNC2=O)S(=O)(=O)c2ccc(Cl)cc2)cc1)c1ccccc1 [Compound 553, 4-({[(4-chlorophenyl)sulfonyl][(3R)-2-oxoazepan-3-yl]amino}methyl)-N-[(1R)-1-phenylpropyl]benzamide]
The IC50 of the first is higher: 100 to 1000 nM for the first, 25 to 100 nM for the second. The second is the more potent here.

First: O=C(NCc1ccccc1OC(F)(F)F)c1ccc(CN([C@@H]2CCCCNC2=O)S(=O)(=O)c2ccc(Cl)cc2)cc1 [Compound 579, 4-({[(4-chlorophenyl)sulfonyl][(3R)-2-oxoazepan-3-yl]amino}methyl)-N-[2-(trifluoromethoxy)benzyl]benzamide]
Second: CC(NC(=O)c1ccc(CN([C@@H]2CCCCNC2=O)S(=O)(=O)c2ccc(Cl)cc2)cc1)c1cccnc1 (stereo partly drawn) [Compound 636, 4-({[(4-chlorophenyl)sulfonyl][(3R)-2-oxoazepan-3-yl]amino}methyl)-N-(1-pyridin-3-ylethyl)benzamide]
The IC50 of the first is higher: 100 to 1000 nM for the first, 25 to 100 nM for the second.

First: CCN(C(=O)c1ccc(CN([C@@H]2CCCCNC2=O)S(=O)(=O)c2ccc(Cl)cc2)cc1)C1CCCCC1 [Compound 609, 4-({[(4-chlorophenyl)sulfonyl][(3R)-2-oxoazepan-3-yl]amino}methyl)-N-cyclohexyl-N-ethylbenzamide]
Second: O=C1NCCCC[C@H]1N(Cc1ccc(-c2nnn[nH]2)cc1)S(=O)(=O)c1ccc(Cl)cc1 [Compound 663]
The IC50 of the first is higher: 100 to 1000 nM for the first, 25 to 100 nM for the second.

`O=C1NCCCC[C@H]1N(Cc1ccc(C(=O)N(Cc2cccnc2)Cc2cccnc2)cc1)S(=O)(=O)c1ccc(Cl)cc1` [Compound 613, 4-({[(4-chlorophenyl)sulfonyl][(3R)-2-oxoazepan-3-yl]amino}methyl)-N,N-bis(pyridin-3-ylmethyl)benzamide] and `O=C1NCCCC[C@H]1N(Cc1ccc(-c2nnc(-c3ccccc3)o2)cc1)S(=O)(=O)c1ccc(Cl)cc1` [Compound 672] cannot be ordered by IC50: > 1000 nM for the first, > 1000 nM for the second.
